Test results published in patent US9932332B2, “FXR (NR1H4) modulating compounds” (Gilead Sciences, Inc., priority 2016, dated 2018).

Target: FXR ligand binding domain (Homo sapiens (Human), UniProt Q96RI1)
Test: Mammalian one hybrid (M1H) Gal4 reporter gene assay in HEK293 cells
Format: cell-based
Details: Gal4-FXR-LBD luciferase reporter, 16 h incubation
Procedure: Determination of a ligand mediated Gal4 promoter driven transactivation to quantify ligand binding mediated activation of FXR was performed as follows: The cDNA part encoding the FXR ligand binding domain was cloned into vector pCMV-BD (Stratagene) as a fusion to the yeast GAL4 DNA binding domain under the control of the CMV promoter. The amino acid boundaries of the ligand binding domain were amino acids 187-472 of Database entry NM_005123 (RefSeq). The plasmid pFR-Luc (Stratagene) was used as the reporter plasmid, containing a synthetic promoter with five tandem repeats of the yeast GAL4 binding sites, driving the expression of the Photinus pyralis (American firefly) luciferase gene as the reporter gene. In order to improve experimental accuracy the plasmid pRL-CMV (Promega) was cotransfected. pRL-CMV contains the constitutive CMV promoter, controlling the expression of the Renilla reniformis luciferase. […] Cells were incubated for additional 16 h before firefly and renilla luciferase activities were measured sequentially in the same cell extract using a Dual-Light-Luciferase-Assay system (Dyer et al., Anal. Biochem. 2000, 282, 158-161). […]

Sequence of FXR ligand binding domain (Q96RI1 other isoform, or with tags, fused parts or gaps): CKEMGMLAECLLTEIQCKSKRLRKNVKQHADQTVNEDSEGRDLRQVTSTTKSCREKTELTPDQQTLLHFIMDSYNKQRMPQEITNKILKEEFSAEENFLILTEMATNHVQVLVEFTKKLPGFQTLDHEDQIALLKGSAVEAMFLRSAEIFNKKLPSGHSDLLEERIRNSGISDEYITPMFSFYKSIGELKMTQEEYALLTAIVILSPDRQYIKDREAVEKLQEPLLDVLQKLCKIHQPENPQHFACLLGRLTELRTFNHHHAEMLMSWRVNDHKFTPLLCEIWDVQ

O=C(O)c1cc(F)c2nc(C3(O)C4COCC3CC(OCc3c(-c5c(Cl)cccc5Cl)noc3C3CC3)C4)sc2c1 [Example 1, 2-((1R,5S,9S)-7-((5-Cyclopropyl-3-(2,6-dichlorophenyl)isoxazol-4-yl)methoxy)-9-hydroxy-3-oxabicyclo[3.3.1]nonan-9-yl)-4-fluorobenzo[d]thiazole-6-carboxylic acid]
EC50: 216 nM

O=C(O)c1ccc2nc(C3(O)C4COCC3CC(OCc3c(-c5c(Cl)cccc5Cl)noc3C3CC3)C4)sc2c1 [Example 2, 2-((1R,5S,9S)-7-((5-Cyclopropyl-3-(2,6-dichlorophenyl)isoxazol-4-yl)methoxy)-9-hydroxy-3-oxabicyclo[3.3.1]nonan-9-yl)benzo[d]thiazole-6-carboxylic acid]
EC50: 175 nM
